# PubChem BioAssay (NCI)
#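 Tested at 5 concentrations; 48 h exposure; 96-well plates; endpoints linearly interpolated, else capped at highest concentration. At the GI50, growth is halved. Definition used: TGI = concentration required for complete inhibition of growth.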
# Legend:
# Assay in all cases: NCI anticancer screen, dose series, 48 h
# [1] = system: A498 renal
# [2] = system: BT-549 breast
# [3] = system: MCF7 breast
# [4] = system: T-47D breast
# [5] = system: SR leukemia
# [6] = system: DU-145 prostate
# [7] = system: NCI-H460 lung
# [8] = system: MDA-MB-231 breast
# [9] = system: SW-620 colon
# [10] = system: TK-10 renal
SMILES,GI50 [1],TGI [1],GI50 [2],TGI [2],GI50 [3],TGI [3],GI50 [4],TGI [4],GI50 [5],TGI [5],GI50 [6],TGI [6],GI50 [7],TGI [7],GI50 [8],TGI [8],GI50 [9],TGI [9],GI50 [10],TGI [10]
O=C(Nc1cccc2[nH]c(C(F)(F)F)nc12)c1cc(Cl)ccc1Cl,1.63 µM,6.19 µM,2.33 µM,8.14 µM,2.81 µM,49.7 µM,1.84 µM,6.43 µM,3.04 µM,8.96 µM,4.94 µM,> 100 µM,3.09 µM,> 100 µM,2.43 µM,6.71 µM,3.6 µM,14.8 µM,4.17 µM,36.2 µM
COc1cc(OC)c2sc(-c3ccc(-n4cncc4-c4ccc(OC)c(OC)c4)cc3)nc2c1,2.15 µM,> 100 µM,9.12 µM,> 100 µM,5.37 µM,> 100 µM,3.78 µM,> 100 µM,3.03 µM,> 100 µM,27.9 µM,> 100 µM,6.06 µM,> 100 µM,28.4 µM,> 100 µM,> 100 µM,> 100 µM,31.7 µM,> 100 µM
C=CC(C)(C)n1cc(C2=C(O)C(=O)C(c3cn(C(C)(C)C=C)c4ccccc34)=C(O)C2=O)c2ccccc21,–,34.5 µM,–,3.63 µM,–,12.4 µM,–,23.1 µM,–,> 45 µM,–,18.9 µM,–,12.6 µM,–,8.27 µM,–,53.8 µM,–,10.9 µM
COc1ccc2c(c1)C(=O)/C(=C/c1cccc(OCC(=O)Nc3nc(C)c(C)s3)c1)O2,1.75 µM,10.7 µM,2.37 µM,7.63 µM,1.63 µM,3.48 µM,1.99 µM,4.65 µM,0.0184 µM,0.0364 µM,0.121 µM,0.67 µM,2.71 µM,8.49 µM,0.121 µM,0.738 µM,0.499 µM,1.86 µM,1.03 µM,2.8 µM
FC(F)(F)c1ccc(-c2nn3ncccc3c2-c2ccnc(Nc3ccc4c(c3)OCCO4)n2)cc1,4.68 µM,> 25 µM,17.3 µM,> 25 µM,8.04 µM,> 25 µM,4.78 µM,> 25 µM,> 25 µM,> 25 µM,16.4 µM,> 25 µM,11.9 µM,> 25 µM,3.49 µM,> 21.9 µM,> 25 µM,> 25 µM,10.1 µM,> 25 µM
CC(=O)c1cccc(NC(=O)C(=O)c2c(O)c3ccccc3oc2=O)c1,–,> 100 µM,–,> 100 µM,–,> 100 µM,–,> 100 µM,–,> 100 µM,–,–,–,> 100 µM,–,> 100 µM,–,> 100 µM,–,> 100 µM
COc1ccc(-c2cnnn2-c2nonc2-n2cccc2)cc1OC,2.95 µM,23 µM,4.06 µM,> 100 µM,3.17 µM,> 100 µM,3.79 µM,> 100 µM,1.9 µM,> 100 µM,7.95 µM,> 100 µM,3.75 µM,> 100 µM,5.35 µM,69.4 µM,3.61 µM,> 100 µM,22.6 µM,> 100 µM
COc1ccc(C2=NC(=O)NC2c2ccc(OC)cc2)cc1 (stereo not drawn),4.49 µM,29.1 µM,3.89 µM,29.5 µM,4.34 µM,> 100 µM,6.9 µM,> 100 µM,1.63 µM,6.91 µM,23 µM,> 100 µM,6.73 µM,51.8 µM,12.3 µM,> 100 µM,4.65 µM,> 100 µM,4.43 µM,35.9 µM
CN(Cc1ccc(F)cc1)c1ccc(CO)c(Cl)c1,0.0507 µM,0.174 µM,12.3 µM,39.9 µM,1.23 µM,21.5 µM,0.667 µM,4.16 µM,20.3 µM,73.8 µM,29.1 µM,> 100 µM,1.41 µM,13.9 µM,28.7 µM,> 100 µM,5.14 µM,> 100 µM,0.203 µM,0.825 µM
CCOC(=O)c1ccc(NC(=O)NC2=NCCS2)cc1,0.34 µM,2.24 µM,0.84 µM,> 40.1 µM,0.517 µM,> 100 µM,4.13 µM,> 100 µM,0.973 µM,> 100 µM,1.71 µM,> 100 µM,3.2 µM,> 100 µM,1.64 µM,> 100 µM,22.9 µM,> 100 µM,> 100 µM,> 100 µM
Cn1c(=O)n(C)c2cc(CNCCNc3ccnc4cc(Cl)ccc34)ccc21,1.57 µM,27 µM,> 100 µM,> 100 µM,28.6 µM,> 100 µM,28.3 µM,86.5 µM,16.3 µM,48.2 µM,38.5 µM,> 100 µM,20.9 µM,60.8 µM,11.2 µM,45.2 µM,34.6 µM,> 100 µM,40.2 µM,> 100 µM
O=C1c2cccnc2-c2nc(-c3cccnc3)cc3c2c1nc1ccccc13,17.7 µM,46.8 µM,4.53 µM,9.5 µM,1.64 µM,3.32 µM,10.4 µM,> 65.2 µM,–,> 100 µM,3 µM,8.31 µM,2.16 µM,–,4.43 µM,> 72 µM,2.28 µM,5.63 µM,–,–
C=C1C(=O)O[C@H]2[C@H]1CC/C(Cn1cc(-c3ccc(N)cc3)nn1)=C\CC[C@@]1(C)O[C@@H]21,10.4 µM,26.1 µM,3.05 µM,11.7 µM,2.41 µM,9.13 µM,2.23 µM,5.77 µM,0.702 µM,> 100 µM,3.65 µM,14.1 µM,10.4 µM,29.7 µM,3.45 µM,15.8 µM,2.16 µM,6.01 µM,2.25 µM,5.43 µM
O=[N+]([O-])c1cc([As](Br)c2ccc(O)c([N+](=O)[O-])c2)ccc1O,–,3.74 µM,–,3.84 µM,–,> 20.8 µM,–,0.557 µM,–,0.566 µM,–,4.59 µM,–,> 25.6 µM,–,3.11 µM,–,3.56 µM,–,3.14 µM
COc1ccc(Nc2nc(Nc3cc(C)[nH]n3)c3cc(OC)c(OC)cc3n2)cc1,–,–,1.4 µM,2.9 µM,0.457 µM,2.05 µM,1.07 µM,3.48 µM,0.386 µM,> 100 µM,1.03 µM,2.24 µM,0.569 µM,2.09 µM,1.35 µM,2.9 µM,0.314 µM,1.02 µM,–,–
NC(=O)c1cccnc1,> 100 µM,> 100 µM,> 100 µM,> 100 µM,> 100 µM,> 100 µM,> 100 µM,> 100 µM,59.8 µM,> 100 µM,> 100 µM,> 100 µM,> 100 µM,> 100 µM,> 100 µM,> 100 µM,> 100 µM,> 100 µM,> 100 µM,> 100 µM
CC(C)(C)NCC(O)COc1c(Br)c(Br)c(Br)c2c1OC(C)(C)C2 (stereo not drawn),1.85 µM,3.33 µM,1.69 µM,3.11 µM,1.76 µM,3.24 µM,1.65 µM,3.59 µM,1.66 µM,3.29 µM,1.51 µM,2.84 µM,1.77 µM,3.28 µM,1.54 µM,3.01 µM,1.7 µM,3.1 µM,2.04 µM,3.52 µM
CCCCCCCCCc1ccc(OCCOCCOCCOCCOCCOCCOCCOCCOCCO)cc1,0.665 µM,3.8 µM,0.59 µM,1.61 µM,0.328 µM,1.96 µM,0.224 µM,2.75 µM,0.437 µM,1.91 µM,1.24 µM,4.65 µM,0.301 µM,1.65 µM,0.668 µM,1.51 µM,1.19 µM,5.55 µM,0.745 µM,1.93 µM
CC(=O)c1ccc2c(c1)N(CCCN1CCN(CCO)CC1)c1ccccc1S2,1.55 µM,3.91 µM,3.38 µM,11.9 µM,1.78 µM,3.52 µM,1.94 µM,5.2 µM,2.68 µM,6.92 µM,4.55 µM,15.8 µM,2.05 µM,4.09 µM,1.96 µM,4.51 µM,1.82 µM,3.61 µM,1.69 µM,3.6 µM
CCOC(=O)c1sc(-c2ccc(OS(=O)(=O)C[C@]34CCC(CC3=O)C4(C)C)c(C=O)c2)nc1C,0.127 µM,1.17 µM,0.916 µM,2.48 µM,0.858 µM,2.47 µM,0.78 µM,2.46 µM,0.66 µM,3.27 µM,1.55 µM,> 50 µM,1.03 µM,3.24 µM,1.03 µM,2.66 µM,1.04 µM,2.69 µM,0.721 µM,4.48 µM
C=C(CN1CCc2c([nH]c3ccccc23)C1)c1ccc(C(=O)Nc2ccccc2N)cc1,–,–,5.29 µM,17.7 µM,3.98 µM,22.9 µM,8.5 µM,50 µM,0.622 µM,50 µM,3.85 µM,13.9 µM,3.57 µM,21 µM,2.74 µM,12.9 µM,3.89 µM,28.5 µM,2.6 µM,9.58 µM
COc1cc(OCc2cccc(-c3ccccc3)c2C)cc(OC)c1CN1CCCCC1C(=O)NCCOCCOCCN (stereo not drawn),2.27 µM,11.8 µM,11.5 µM,24.7 µM,1.92 µM,3.92 µM,1.77 µM,3.77 µM,1.74 µM,4.24 µM,4.61 µM,16.1 µM,1.83 µM,3.73 µM,1.8 µM,3.84 µM,1.9 µM,3.87 µM,2.48 µM,7.42 µM
Nc1c(C(=O)c2cccc(C#CCN3CCCCC3)c2)cnn1-c1ccc(F)cc1,> 25 µM,> 25 µM,> 13.3 µM,> 25 µM,19.1 µM,> 25 µM,11.3 µM,> 25 µM,14.2 µM,> 25 µM,> 25 µM,> 25 µM,> 25 µM,> 25 µM,> 25 µM,> 25 µM,> 25 µM,> 25 µM,> 25 µM,> 25 µM
CCCc1nc(Cl)nc(Cl)c1Cl,–,7.53 µM,–,0.0764 µM,–,1.52 µM,–,4.49 µM,–,0.529 µM,–,9.93 µM,–,5.66 µM,–,2.07 µM,–,2.17 µM,–,4.71 µM
CC(C)(C)[Si](C)(C)OC1[C@@H](CNC(N)=O)O[C@@H](n2cnc3c(NC(=O)Nc4ccccc4)ncnc32)[C@H]1O[Si](C)(C)C(C)(C)C (stereo partly drawn),1.56 µM,8.04 µM,2.47 µM,9.2 µM,1.83 µM,8.51 µM,7.56 µM,14.2 µM,0.977 µM,1.99 µM,1.71 µM,5.59 µM,1.02 µM,1.98 µM,5.49 µM,12 µM,0.981 µM,1.87 µM,–,–
O=C(c1ccc2ccccc2c1)c1nc2cc(F)ccc2[n+]([O-])c1C(F)(F)F,43.7 µM,> 100 µM,17.5 µM,33 µM,35.6 µM,> 100 µM,27.6 µM,> 100 µM,–,–,20.9 µM,45.8 µM,18.8 µM,38 µM,18.8 µM,38 µM,17.3 µM,37 µM,28.5 µM,92.2 µM
COc1ccc(-c2c(C#N)c(N)nc(N3CCOCC3)c2C#N)cc1,7.36 µM,30.1 µM,20.9 µM,> 100 µM,21.6 µM,98.9 µM,0.828 µM,6.14 µM,–,–,27.3 µM,> 100 µM,29.9 µM,> 100 µM,11 µM,35.1 µM,50.3 µM,> 100 µM,19.6 µM,86.1 µM
